The results in this text go back to article PMC11522050, “Cloning, expression and characterisation of a novel mollusc α-1,2-Fucosyltransferase from Crassostrea gigas (CgFUT2)” (Glycoconjugate Journal, 2024).

Assay [1] addresses T1, CgFUT2 (Magallana gigas, UniProt A0AA95ZAK5).
T1 construct: crude cell lysate used (purification failed)
T1 sequence (A0AA95ZAK5 1-350): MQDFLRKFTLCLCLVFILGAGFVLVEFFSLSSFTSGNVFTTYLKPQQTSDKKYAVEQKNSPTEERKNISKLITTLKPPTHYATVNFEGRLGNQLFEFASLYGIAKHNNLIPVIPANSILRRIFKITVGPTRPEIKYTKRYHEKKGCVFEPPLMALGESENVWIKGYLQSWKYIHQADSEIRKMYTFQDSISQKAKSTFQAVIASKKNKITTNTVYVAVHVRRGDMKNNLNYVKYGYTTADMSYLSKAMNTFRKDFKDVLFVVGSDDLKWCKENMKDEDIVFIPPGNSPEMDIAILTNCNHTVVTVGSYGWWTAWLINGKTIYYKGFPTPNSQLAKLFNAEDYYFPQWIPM
The assay can be described thus: fucosyl transfer to pNP-lactose, HPLC with UV detection. Type of assay: biochemical. The following applies: 0.25 mM GDP; 3 mM GDP-Fuc, 0.5 mM pNP-β-lactose, 20 mM MnCl2, 2 mM ATP, MES pH 7.0, 37 °C; Sf9 lysate.

Assay [2] deals with T1, CgFUT2. The experiment in a line: fucosyl transfer, HPLC with UV detection; product by NMR. The class given is biochemical. The following applies: acceptor; 3 mM GDP-Fuc, 20 mM MnCl2, MES pH 7.0, 37 °C; control Sf9 lysate without enzyme as blank.

On to `Nc1nc2c(ncn2[C@@H]2O[C@H](COP(=O)(O)OP(=O)(O)O)[C@@H](O)[C@H]2O)c(=O)[nH]1` [GDP], for which the “% decrease of activity at 0.25 mM” value on CgFUT2 [1] is 30%.

In the case of `O=[N+]([O-])c1ccc(O[C@@H]2O[C@H](CO)[C@@H](O[C@@H]3O[C@H](CO)[C@H](O)[C@H](O)[C@H]3O)[C@H](O)[C@H]2O)cc1` [pNP-β-lactose], the “fucosyl transfer, HPLC with UV detection; product by NMR” value at CgFUT2 [2] was “Sf9 cell lysate expressing CgFUT2 and a control Sf9 cell lysate was assessed using pNP-β-lactose”.
